Test results published in PubChem BioAssay (NCI).
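Five compound concentrations were applied to cells in 96-well plates for 48 hours; endpoints were derived by simple linear interpolation of the resulting dose-response curve. GI50 marks 50% less growth. At the TGI there is no net growth.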

Columns and labels:
Test in all cases: DTP human tumour cell line panel, 48 h
NCI-H23 lung = system: NCI-H23 lung
HT29 colon = system: HT29 colon
HCC-2998 colon = system: HCC-2998 colon
CAKI-1 renal = system: CAKI-1 renal
KM12 colon = system: KM12 colon
HOP-62 NSCLC = system: HOP-62 NSCLC
HL-60(TB) leukemia = system: HL-60(TB) leukemia
NCI-H522 lung = system: NCI-H522 lung
CCRF-CEM leukemia = system: CCRF-CEM leukemia
HS 578T breast = system: HS 578T breast

Structure (SMILES)	TGI (NCI-H23 lung)	TGI (HT29 colon)	TGI (HCC-2998 colon)	TGI (CAKI-1 renal)	TGI (KM12 colon)	TGI (HOP-62 NSCLC)	TGI (HL-60(TB) leukemia)	TGI (NCI-H522 lung)	TGI (CCRF-CEM leukemia)	TGI (HS 578T breast)	GI50 (NCI-H23 lung)	GI50 (HCC-2998 colon)	GI50 (CAKI-1 renal)	GI50 (KM12 colon)	GI50 (HOP-62 NSCLC)	GI50 (HS 578T breast)	GI50 (HL-60(TB) leukemia)	GI50 (NCI-H522 lung)	GI50 (CCRF-CEM leukemia)	GI50 (HT29 colon)
COc1cc2c(c(O)c1O)-c1ccc(OC)c(=O)cc1C(NC(C)=O)CC2 (stereo unspecified)	54.7 µM	> 70.3 µM	> 78.1 µM	> 100 µM	25.7 µM	> 100 µM	5.29 µM	6.48 µM	37.1 µM	–	–	–	–	–	–	–	–	–	–	–
COc1ccc(/C=N/N2C(=O)c3c(N)c(C#N)c(-c4ccccc4)c(-c4ccccc4)c3C2=O)cc1	–	–	> 100 µM	> 100 µM	> 100 µM	–	> 100 µM	> 100 µM	> 100 µM	> 100 µM	–	–	–	–	–	–	–	–	–	–
Cc1ccc(-c2c(C#N)c(-c3ccc([N+](=O)[O-])cc3)c(C#N)c(=O)n2NS(=O)(=O)c2ccccc2)cc1	–	> 100 µM	> 100 µM	> 100 µM	> 100 µM	> 100 µM	–	> 100 µM	58.3 µM	33.1 µM	–	–	–	–	–	–	–	–	–	–
COc1ccc(-c2csc(NC(=O)CSc3nc(C)c(-c4ccccc4)n3Nc3ccccc3)n2)cc1	> 100 µM	–	> 100 µM	> 100 µM	> 100 µM	> 100 µM	> 100 µM	> 100 µM	> 100 µM	> 100 µM	4.96 µM	> 100 µM	2.5 µM	5.71 µM	47.8 µM	6.69 µM	6.29 µM	3.35 µM	3.92 µM	–
CCOC(=O)C1(C(=O)OCC)CCCN1C(=O)[C@H](CNC(=O)OC(C)(C)C)NC(=O)OCc1ccccc1	> 100 µM	> 100 µM	> 100 µM	> 100 µM	> 100 µM	> 100 µM	–	–	> 100 µM	> 100 µM	–	–	–	–	–	–	–	–	–	–
c1ccc(C2=Nn3c(CCCCCCCCc4nnc5n4N=C(c4ccccc4)CS5)nnc3SC2)cc1	> 100 µM	> 50.6 µM	> 100 µM	> 100 µM	> 100 µM	44 µM	–	> 100 µM	> 59.7 µM	> 100 µM	–	–	–	–	–	–	–	–	–	–
CC12CC1C(c1cccc([N+](=O)[O-])c1)(c1cccc([N+](=O)[O-])c1)N=N2 (stereo unspecified)	51.5 µM	> 100 µM	> 100 µM	–	47.3 µM	> 100 µM	45.8 µM	23.2 µM	43.9 µM	78 µM	–	–	–	–	–	–	–	–	–	–
Cc1cn([C@H]2C[C@](C)(CO)N(C)O2)c(=O)[nH]c1=O	> 100 µM	> 100 µM	> 100 µM	> 100 µM	> 100 µM	> 100 µM	> 100 µM	> 100 µM	–	> 100 µM	–	–	–	–	–	–	–	–	–	–
CCN1C(=O)N(CC)C2Nn3c(s/c(=C4\C(=O)N(C)c5ccccc54)c3=O)=NC21 (stereo unspecified)	> 100 µM	> 100 µM	–	> 100 µM	> 100 µM	–	–	> 100 µM	> 100 µM	–	3.38 µM	–	1.05 µM	2.91 µM	–	–	–	2.98 µM	3.3 µM	2.33 µM
CCCCC/C(C=O)=C\c1ccccc1	> 100 µM	> 100 µM	> 100 µM	> 100 µM	> 100 µM	> 100 µM	> 100 µM	–	> 100 µM	> 100 µM	–	–	–	–	–	–	–	–	–	–
COC(=O)[C@H](C)NC(=O)[C@H](CSC)N1C(=O)N[C@@H](C(C)C)C1=O	> 100 µM	> 100 µM	> 100 µM	> 100 µM	> 100 µM	> 100 µM	–	> 100 µM	> 100 µM	–	–	–	–	–	–	–	–	–	–	–
COc1ccc(N=NC(=Nc2ccc(F)cc2)c2ccc(N(CCC#N)CCC#N)cc2)cc1	65.6 µM	> 100 µM	51.5 µM	> 100 µM	44.9 µM	> 100 µM	–	47 µM	> 100 µM	86.4 µM	–	–	–	–	–	–	–	–	–	–
CSC(SC)=C1C(=O)N(c2ccccc2)N=C1C	–	> 100 µM	> 100 µM	65.8 µM	> 100 µM	> 100 µM	–	59 µM	49.8 µM	> 100 µM	–	–	–	–	–	–	–	–	–	–
O=C(CNCc1ccccc1)Oc1c(Cl)c(Cl)c(Cl)c(Cl)c1Cl	> 100 µM	> 100 µM	53.9 µM	56.1 µM	51.1 µM	> 100 µM	52.4 µM	75.9 µM	–	50.6 µM	–	–	–	–	–	–	–	–	–	–
NC(=O)c1ncn2c1NC(=O)CC2	> 100 µM	> 100 µM	> 100 µM	> 100 µM	> 100 µM	> 100 µM	> 100 µM	> 100 µM	> 100 µM	–	–	–	–	–	–	–	–	–	–	–
O=C(O)CC(NC(=O)/C(=C/c1ccccc1O)NC(=O)c1ccccc1)C(=O)O (stereo unspecified)	> 100 µM	> 100 µM	> 100 µM	> 100 µM	> 100 µM	> 100 µM	76.5 µM	> 100 µM	> 100 µM	–	–	–	–	–	–	–	–	–	–	–
N#Cc1c(C#N)c(-c2ccccc2)n(-c2ccccc2)c1N	> 100 µM	> 100 µM	–	> 100 µM	> 100 µM	> 100 µM	> 100 µM	> 100 µM	> 100 µM	> 100 µM	–	–	–	–	–	–	–	–	–	–
COc1ccccc1N1CCN(CCCNC(=O)c2cc(Cl)c(N)c(Cl)c2)CC1	> 100 µM	> 100 µM	41.6 µM	–	> 100 µM	> 100 µM	55.8 µM	–	> 100 µM	> 100 µM	–	–	–	–	–	–	–	–	–	–
C[C@]12CC[C@H](O)C=C1CC[C@@H]1[C@@H]2CC[C@]2(C)C(c3ccc(=O)oc3)CC[C@]12O (stereo partly specified)	0.023 µM	0.293 µM	0.208 µM	0.0225 µM	0.129 µM	0.0269 µM	< 0.0125 µM	0.0155 µM	0.151 µM	–	–	–	–	–	–	–	–	–	–	–
O=C1c2cccc(NCCNCCO)c2C(=O)c2cccc(NCCNCCO)c21	5.68 µM	3.54 µM	2.45 µM	4.56 µM	4.48 µM	4.14 µM	5.19 µM	1.66 µM	2.88 µM	–	–	–	–	–	–	–	–	–	–	–
O=C([CH-]C(=O)c1ccccc1)c1ccccc1.O=C([CH-]C(=O)c1ccccc1)c1ccccc1.[O]=[U+2]=[O]	> 100 µM	7.71 µM	–	15.6 µM	–	–	–	–	–	–	4.01 µM	–	3.79 µM	–	–	–	–	–	–	2.39 µM
